Data published in US20050101595A1, “N-containing cycloalkyl-substituted amino-thiazole derivatives and pharmaceutical compositions for inhibiting cell proliferation and methods for their use” (PFIZER INC., priority 2003, published 2005).

Key:
[1] = molecular target: CDK2/Cyclin A (Homo sapiens, UniProt P24941); assay: Inhibition of CDK2/Cyclin A Retinoblastoma Kinase Activity; type: biochemical; conditions: read-out: % inhibition of CDK2 (@ 0.05 μM), compound at 0.05 μM
Method: Cyclin-dependent kinase activity was measured by quantifying the enzyme-catalyzed, time-dependent incorporation of radioactive phosphate from [^32P]ATP or [^33P]ATP into a protein substrate. Unless noted otherwise, assays were performed in 96-well plates in a total volume of 50 μL, in the presence of 10 mM HEPES (N-[2-hydroxyethyl]piperazine-N′-[2-ethanesulfonic acid]) (pH 7.4), 10 mM MgCl2, 25 μM adenosine triphosphate (ATP), 1 mg/mL ovalbumin, 5 μg/mL leupeptin, 1 mM dithiothreitol, 10 mM β-glycerophosphate, 0.1 mM sodium vanadate, 1 mM sodium fluoride, 2.5 mM ethylene glycol-bis(β-aminoethyl ether)-N,N,N′N′-tetraacetic acid (EGTA), 2% (v/v) dimethylsulfoxide, and 0.03-0.4 μCi [^32/33P]ATP per reaction. Reactions were initiated with enzyme, incubated at 30° C., and terminated after 20 minutes by the addition of ethylenediaminetetraacetic acid (EDTA) to 250 mM. The phosphorylated substrate was then captured on a nitrocellulose or phosphocellulose membrane using a 96-well filtration manifold, and unincorporated radioactivity was removed by repeated washing with 0.85% phosphoric acid. Radioactivity was quantified by exposing the dried membranes to a phosphorimager.
Inhibition was measured relative to control wells that contained all reaction components including 2% (v/v) DMSO but no compound, after subtraction of background radioactivity measured in the absence of enzyme. Apparent Ki values of discrete compounds were measured by assaying enzyme activity in the presence of different inhibitor compound concentrations and subtracting the background radioactivity measured in the absence of enzyme. The kinetic parameters (kcat, Km for ATP) were measured for each enzyme under the usual assay conditions by determining the dependence of initial rates on ATP concentration. Inhibition data were fit to an equation for competitive inhibition using Kaleidagraph (Synergy Software), or were fit to an equation for competitive tight-binding inhibition using the software KineTic (BioKin, Ltd.).
Inhibition of CDK2/Cyclin A Retinoblastoma Kinase Activity:
CDK2 was purified using published methodology (Rosenblatt et al., “Purification and Crystallization of Human Cyclin-dependent Kinase 2,” J. Mol. Biol., vol. 230, 1993, pp. 1317-1319) from insect cells that had been infected with a baculovirus expression vector. […] A complex of CDK2 and proteolyzed cyclin A was prepared and purified by gel filtration. The substrate for this assay was the same Rb substrate fragment used for the CDK4 assays, and the methodology of the CDK2/delta cyclin A and the CDK4/delta cyclin D3 assays was essentially the same, except that CDK2 was present at 10 nM or 19 nM. The duration of the assay was 60 or 75 minutes, during which the time-dependence of product formation was linear and initial rate conditions were met. And, the percent inhibitions of the compounds of Example O through Example R were calculated as described above and shown in Table 2.

[2] = test system: HCT-116 cell line; assay: Inhibition of cell growth, tetrazolium salt (MTT) assay; type: cell-based; conditions: Homo sapiens, HCT-116, HCT-116 cells; MTT; compound at 0.175 uM
Summary of the method: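 McCoy's 5A cultures; 4 h pre-incubation; compound dilutions in 0.5% v/v DMSO; 3–5 d, 37° C, 5% CO2; MTT 0.2 mg/mL final, 4 h; formazan dissolved in DMSO, A540; vs 0.5% DMSO vehicle.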

| inhibition at 0.05 µM [1] | SMILES | inhibition at 0.175 µM [2] |
| --- | --- | --- |
| 91% | CC(NCCCS(=O)(=O)N1CCC(Nc2nc(N)c(C(=O)c3c(F)cccc3F)s2)CC1)c1ccccc1 (stereo not drawn) [Example V53] | 75% |
| 75% | CN(C)CCNCCCS(=O)(=O)N1CCC(Nc2nc(N)c(C(=O)c3c(F)cccc3F)s2)CC1 [Example V54] | 0% |
| 84% | Nc1nc(NC2CCN(S(=O)(=O)CCCN3CCCCC3)CC2)sc1C(=O)c1c(F)cccc1F [Example V55] | 56% |
| 83% | CCCNCCCS(=O)(=O)N1CCC(Nc2nc(N)c(C(=O)c3c(F)cccc3F)s2)CC1 [Example V56] | 19% |
| 77% | CCN(CC)CCCS(=O)(=O)N1CCC(Nc2nc(N)c(C(=O)c3c(F)cccc3F)s2)CC1 [Example V57] | 33% |
| 80% | COCC(C)NCCCS(=O)(=O)N1CCC(Nc2nc(N)c(C(=O)c3c(F)cccc3F)s2)CC1 (stereo not drawn) [Example V58] | 10% |
| 72% | CCN1CCN(CCCS(=O)(=O)N2CCC(Nc3nc(N)c(C(=O)c4c(F)cccc4F)s3)CC2)CC1 [Example V59] | 7% |
| 84% | CC(C)CCNCCCS(=O)(=O)N1CCC(Nc2nc(N)c(C(=O)c3c(F)cccc3F)s2)CC1 [Example V60] | 18% |
| 81% | CCCN(CCCS(=O)(=O)N1CCC(Nc2nc(N)c(C(=O)c3c(F)cccc3F)s2)CC1)CC1CC1 [Example V61] | 65% |
| 91% | Cc1cccc(NCCCS(=O)(=O)N2CCC(Nc3nc(N)c(C(=O)c4c(F)cccc4F)s3)CC2)n1 [Example V62] | 0% |
| 78% | Nc1nc(NC2CCN(S(=O)(=O)CCCNC3CCC3)CC2)sc1C(=O)c1c(F)cccc1F [Example V63] | 13% |
| 17% | Nc1nc(NC2CCN(S(=O)(=O)CCCN3CCCC3)CC2)sc1C(=O)c1c(F)cccc1F [Example V64] | 0% |
| 79% | C#CCN(C)CCCS(=O)(=O)N1CCC(Nc2nc(N)c(C(=O)c3c(F)cccc3F)s2)CC1 [Example V65] | 30% |
| 82% | CN(CCC#N)CCCS(=O)(=O)N1CCC(Nc2nc(N)c(C(=O)c3c(F)cccc3F)s2)CC1 [Example V66] | 10% |
| 87% | COCCNCCCS(=O)(=O)N1CCC(Nc2nc(N)c(C(=O)c3c(F)cccc3F)s2)CC1 [Example V67] | 21% |
| 85% | Nc1nc(NC2CCN(S(=O)(=O)CCCN3CCC(O)C3)CC2)sc1C(=O)c1c(F)cccc1F (stereo not drawn) [Example V68] | 10% |
| 81% | Nc1nc(NC2CCN(S(=O)(=O)CCCN3CCCCCC3)CC2)sc1C(=O)c1c(F)cccc1F [Example V69] | 54% |
| 89% | CC(C)[C@H](CO)NCCCS(=O)(=O)N1CCC(Nc2nc(N)c(C(=O)c3c(F)cccc3F)s2)CC1 [Example V70] | 2% |
| 85% | Nc1nc(NC2CCN(S(=O)(=O)CCCN[C@@H]3CCCC[C@@H]3CO)CC2)sc1C(=O)c1c(F)cccc1F [Example V71] | 5% |
| 90% | Nc1nc(NC2CCN(S(=O)(=O)CCCNC3CCCCC3)CC2)sc1C(=O)c1c(F)cccc1F [Example V72] | 14% |
| 82% | Nc1nc(NC2CCN(S(=O)(=O)CCCNCCCN3CCCC3)CC2)sc1C(=O)c1c(F)cccc1F [Example V73] | 0% |
| 82% | C=CCN1CCN(CCCS(=O)(=O)N2CCC(Nc3nc(N)c(C(=O)c4c(F)cccc4F)s3)CC2)CC1 [Example V74] | 44% |
| 88% | Nc1nc(NC2CCN(S(=O)(=O)CCCNC3CCCC3)CC2)sc1C(=O)c1c(F)cccc1F [Example V75] | 19% |

| inhibition at 0.05 µM [1] | SMILES | inhibition at 0.175 µM [2] |
| --- | --- | --- |
| 89% | Nc1nc(NC2CCN(S(=O)(=O)CCCNCCc3cccs3)CC2)sc1C(=O)c1c(F)cccc1F [Example V76] | 44% |
| 72% | Nc1nc(NC2CCN(S(=O)(=O)CCCN3CCCC(O)C3)CC2)sc1C(=O)c1c(F)cccc1F (stereo not drawn) [Example V77] | 7% |
| 80% | Nc1nc(NC2CCN(S(=O)(=O)CCCN(CCO)CCO)CC2)sc1C(=O)c1c(F)cccc1F [Example V78] | 7% |
| 93% | Cc1cccc(CNCCCS(=O)(=O)N2CCC(Nc3nc(N)c(C(=O)c4c(F)cccc4F)s3)CC2)c1 [Example V79] | 76% |
| 91% | Cc1ccc(CNCCCS(=O)(=O)N2CCC(Nc3nc(N)c(C(=O)c4c(F)cccc4F)s3)CC2)cc1 [Example V80] | 21% |
| 78% | CC(O)CCNCCCS(=O)(=O)N1CCC(Nc2nc(N)c(C(=O)c3c(F)cccc3F)s2)CC1 (stereo not drawn) [Example V81] | 5% |
| 88% | CN(CCCS(=O)(=O)N1CCC(Nc2nc(N)c(C(=O)c3c(F)cccc3F)s2)CC1)Cc1ccco1 [Example V82] | 60% |
| 79% | CCC(O)CNCCCS(=O)(=O)N1CCC(Nc2nc(N)c(C(=O)c3c(F)cccc3F)s2)CC1 (stereo not drawn) [Example V83] | 0% |
| 24% | Nc1nc(NC2CCN(S(=O)(=O)CCCNc3nnn[nH]3)CC2)sc1C(=O)c1c(F)cccc1F [Example V84] | 0% |
| 82% | CCCCNCCCS(=O)(=O)N1CCC(Nc2nc(N)c(C(=O)c3c(F)cccc3F)s2)CC1 [Example V85] | 29% |
| 61% | CNCCCS(=O)(=O)N1CCC(Nc2nc(N)c(C(=O)c3c(F)cccc3F)s2)CC1 [Example V86] | 22% |
| 80% | NC(=O)[C@@H]1CCCN1CCCS(=O)(=O)N1CCC(Nc2nc(N)c(C(=O)c3c(F)cccc3F)s2)CC1 [Example V87] | 3% |
| 77% | Nc1nc(NC2CCN(S(=O)(=O)CCCN3CCOCC3)CC2)sc1C(=O)c1c(F)cccc1F [Example V88] | 17% |
| 85% | CCCCCNCCCS(=O)(=O)N1CCC(Nc2nc(N)c(C(=O)c3c(F)cccc3F)s2)CC1 [Example V89] | 42% |
| 79% | Nc1nc(NC2CCN(S(=O)(=O)CCCNCCCCO)CC2)sc1C(=O)c1c(F)cccc1F [Example V90] | 21% |
| 81% | Nc1nc(NC2CCN(S(=O)(=O)CCCNCCO)CC2)sc1C(=O)c1c(F)cccc1F [Example V91] | 13% |
| 81% | N#CCCNCCCS(=O)(=O)N1CCC(Nc2nc(N)c(C(=O)c3c(F)cccc3F)s2)CC1 [Example V92] | 9% |
| 84% | CC(C)NCCCS(=O)(=O)N1CCC(Nc2nc(N)c(C(=O)c3c(F)cccc3F)s2)CC1 [Example V93] | 11% |
| 87% | Nc1nc(NC2CCN(S(=O)(=O)CCCNCCc3ccncc3)CC2)sc1C(=O)c1c(F)cccc1F [Example V94] | 0% |
| 70% | CN(C)CCN(C)CCCS(=O)(=O)N1CCC(Nc2nc(N)c(C(=O)c3c(F)cccc3F)s2)CC1 [Example V95] | 3% |
| 84% | CC(C)OCCCNCCCS(=O)(=O)N1CCC(Nc2nc(N)c(C(=O)c3c(F)cccc3F)s2)CC1 [Example V96] | 10% |
| 81% | CCC(COC)NCCCS(=O)(=O)N1CCC(Nc2nc(N)c(C(=O)c3c(F)cccc3F)s2)CC1 (stereo not drawn) [Example V97] | 28% |
